#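 Following 48 hours of exposure in 96-well plates, responses at five concentrations were used to interpolate endpoints linearly. Abbreviation: GI50, concentration required for 50% inhibition of growth.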 Calls of active or inactive are those of the source. No stated cut-off is given here; in the data, active = GI50 up to about 1.1 µM and inactive = higher.
# Columns and labels:
# Assay in all cases: inhibition of tumour cell growth, NCI panel, 48 h
# SF-268 = test system: SF-268
# HL-60 = test system: HL-60
# SF-295 = test system: SF-295
# DU-145 = test system: DU-145
# NCI-H23 = test system: NCI-H23
# MDA-MB-435 = test system: MDA-MB-435
# NCI-H460 = test system: NCI-H460
# SK-OV-3 = test system: SK-OV-3
# SR = test system: SR
# RPMI-8226 = test system: RPMI-8226
# Malme-3M = test system: Malme-3M
# EKVX = test system: EKVX
# RXF 393 = test system: RXF 393
# SNB-19 = test system: SNB-19
# COLO 205 = test system: COLO 205
# T47D = test system: T47D
# K562 = test system: K562
# HCT-15 = test system: HCT-15
# HOP-62 = test system: HOP-62
# MDA-N = test system: MDA-N
SMILES,GI50 (SF-268),GI50 (HL-60),GI50 (SF-295),GI50 (DU-145),GI50 (NCI-H23),GI50 (MDA-MB-435),GI50 (NCI-H460),GI50 (SK-OV-3),GI50 (SR),GI50 (RPMI-8226),GI50 (Malme-3M),GI50 (EKVX),GI50 (RXF 393),GI50 (SNB-19),GI50 (COLO 205),GI50 (T47D),GI50 (K562),GI50 (HCT-15),GI50 (HOP-62),GI50 (MDA-N)
Nc1nc2ccc(Sc3ccc4nc(N)[nH]c(=O)c4c3)cc2c(=O)[nH]1,> 100 µM (inactive),> 100 µM (inactive),59.2 µM (inactive),> 100 µM (inactive),> 100 µM (inactive),> 100 µM (inactive),> 100 µM (inactive),> 100 µM (inactive),> 100 µM (inactive),> 100 µM (inactive),> 100 µM (inactive),> 100 µM (inactive),> 100 µM (inactive),> 100 µM (inactive),> 100 µM (inactive),> 100 µM (inactive),> 100 µM (inactive),> 100 µM,–,–
Cc1cc(N)c2cc(NC(=O)CCCCCCCCC(=O)Nc3ccc4nc(C)cc(N)c4c3)ccc2n1,29.6 µM (inactive),1.54 µM (inactive),43.2 µM (inactive),–,15.2 µM (inactive),–,2.47 µM (inactive),> 68.4 µM (inactive),11.7 µM (inactive),5.53 µM (inactive),25.4 µM (inactive),36.3 µM (inactive),> 65.3 µM (inactive),> 38.4 µM (inactive),18.1 µM (inactive),–,16.9 µM (inactive),> 100 µM,> 61.9 µM (inactive),–
Cc1cc2nc3c(C#N)c(-c4ccccc4)cc(Nc4ccc(Cl)cc4)n3c2cc1C,51.6 µM (inactive),–,> 100 µM (inactive),–,> 100 µM (inactive),> 100 µM (inactive),28.5 µM (inactive),> 100 µM (inactive),–,5.6 µM (inactive),> 100 µM (inactive),8.22 µM (inactive),> 100 µM (inactive),> 100 µM (inactive),> 100 µM (inactive),6.24 µM (inactive),–,> 100 µM,> 100 µM (inactive),> 100 µM (inactive)
C=C(C)[C@@H]1CCC2=C[C@H](C/C(C)=C\C3=CC(C)=C(O3)[C@H]1O)OC2=O,> 100 µM (inactive),> 100 µM (inactive),80.9 µM (inactive),> 100 µM (inactive),–,> 100 µM (inactive),> 100 µM (inactive),–,> 100 µM (inactive),> 100 µM (inactive),> 100 µM (inactive),> 100 µM (inactive),35.6 µM (inactive),> 100 µM (inactive),> 100 µM (inactive),41.9 µM (inactive),> 100 µM (inactive),> 100 µM,–,–
CCC(C)CCOC(=O)c1ccc(/N=C\c2ccc(/C=N/c3ccc(C(=O)OCCC(C)CC)cc3)cc2)cc1 (stereo not drawn),> 100 µM (inactive),> 100 µM (inactive),> 100 µM (inactive),–,> 100 µM (inactive),–,> 100 µM (inactive),> 100 µM (inactive),> 100 µM (inactive),> 100 µM (inactive),> 100 µM (inactive),62.2 µM (inactive),> 100 µM (inactive),> 100 µM (inactive),> 100 µM (inactive),–,> 100 µM (inactive),> 100 µM,> 100 µM (inactive),–
C=C(C)C1CC(=O)C(C)=C(O)C1 (stereo not drawn),> 100 µM (inactive),> 100 µM (inactive),> 100 µM (inactive),> 100 µM (inactive),> 100 µM (inactive),–,> 100 µM (inactive),> 100 µM (inactive),> 100 µM (inactive),–,> 100 µM (inactive),> 100 µM (inactive),–,> 100 µM (inactive),> 100 µM (inactive),> 100 µM (inactive),> 100 µM (inactive),> 100 µM,> 100 µM (inactive),> 100 µM (inactive)
Cc1oc2c(c1C)S(=O)(=O)C(C#N)=C(N(C)C)N2,> 100 µM (inactive),–,> 100 µM (inactive),> 100 µM (inactive),> 100 µM (inactive),> 100 µM (inactive),> 100 µM (inactive),> 100 µM (inactive),–,> 100 µM (inactive),> 100 µM (inactive),> 100 µM (inactive),–,> 100 µM (inactive),–,> 100 µM (inactive),> 100 µM (inactive),> 100 µM,> 100 µM (inactive),> 100 µM (inactive)
CN(CCNC(=S)c1cn(C)c2c1ccc1ccccc12)CCNC(=S)c1cn(C)c2c1ccc1ccccc12,74 µM (inactive),–,99.3 µM (inactive),48.2 µM (inactive),48 µM (inactive),96.8 µM (inactive),71.8 µM (inactive),> 100 µM (inactive),49.5 µM (inactive),–,> 100 µM (inactive),67.9 µM (inactive),2.05 µM (inactive),> 100 µM (inactive),> 100 µM (inactive),3.74 µM (inactive),54.8 µM (inactive),> 100 µM,> 100 µM (inactive),–
C=CC1=CC(C)C[C@]1(O)C(=O)OC (stereo partly drawn),< 0.01 µM (active),< 0.01 µM (active),< 0.01 µM (active),–,< 0.01 µM (active),–,< 0.01 µM (active),> 100 µM (inactive),2.75 µM (inactive),< 0.01 µM (active),< 0.01 µM (active),< 0.01 µM (active),< 0.01 µM (active),< 0.01 µM (active),< 0.01 µM (active),–,< 0.01 µM (active),> 100 µM,< 0.01 µM (active),–

# — ChEMBL document CHEMBL1201862, “PubChem BioAssay data set” (2004)
